From BindingDB's records for doi:10.1021/acs.jmedchem.6b00397 (IQM-CSIC, 2016)

Each molecule was assayed against Cannabinoid receptor 2 (Homo sapiens, UniProt P34972) (assay: Displacement of [3H]-CP55940 from human CB2 receptor expressed in HEK293 cell membranes after 90 mins by liquid scintillation counting method).
Chain of Cannabinoid receptor 2 (P34972 whole entry): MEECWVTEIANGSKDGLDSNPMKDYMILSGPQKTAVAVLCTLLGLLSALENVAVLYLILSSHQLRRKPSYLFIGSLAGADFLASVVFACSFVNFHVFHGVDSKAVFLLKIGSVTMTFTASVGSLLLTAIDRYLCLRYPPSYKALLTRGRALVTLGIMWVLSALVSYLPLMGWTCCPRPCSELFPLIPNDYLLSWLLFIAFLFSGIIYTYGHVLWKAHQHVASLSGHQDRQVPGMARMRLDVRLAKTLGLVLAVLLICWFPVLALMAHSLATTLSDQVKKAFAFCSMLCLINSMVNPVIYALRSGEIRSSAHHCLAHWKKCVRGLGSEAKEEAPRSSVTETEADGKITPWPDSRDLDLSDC

Q: How did the Ki turn out when `CCCCCCC(C)(C)c1cc(O)c2c(c1)OC(C)(C)c1cnn(CC)c1-2` was run?
A: > 40 µM

Q: For `CCCCCCC(C)(C)c1cc(O)c2c(c1)OC(C)(C)c1cn(C)nc1-2`, which Ki is on record?
A: > 40 µM

Q: Which Ki does the source give for `CCCCCCC(C)(C)c1cc(O)c2c(c1)OC(C)(C)c1cnn(-c3ccc(Cl)cc3Cl)c1-2` here?
A: > 40 µM

Q: How did the Ki turn out when `CCCCCCC(C)(C)c1cc(O)c2c(c1)OC(C)(C)c1cn(CC)nc1-2` was run?
A: > 40 µM
